Assay results reported in patent publication EP1379634B1 (THE UNIVERSITY OF GEORGIA RESEARCH FOUNDATION, INC., priority 2001, dated 2002).
Residues, ends and D or L forms follow the SMILES beside them. *: point of attachment. AFC = O=c1cc(C(F)(F)F)c2ccc(N*)cc2o1; Cbz = O=C(OCc1ccccc1)*; CH2F = FC*

What was measured:
[1] = tested on: Taenia solium crude mix; test: Competitor assay of vehicles against high Vmax substrate cocktails (Step III), crude mix; format: biochemical
Text: Step III for a crude mix proceeds as it would for a purified protease, except that Vm is used instead of kcat.
One of the most intriguing findings in this experiment was that a highly similar inhibition pattern for the competitor assay resulted when the crude mix was employed as the source of the target protease. Although there were some variations in the effects of inhibitor dilution, the most highly ranked vehicles remained inhibitory consistently in comparison to the profile with the target protease. The relative profile and composition of the top tier of vehicles was identical. Z-LLL-AFC, Z-LLY-AFC, Mu-LY-AFC, Boc-VPR-AFC, Z-SY-AFC, Z-RR-AFC, Z-FLF-AFC, and Z-LGR-AFC consistently emerged as the top eight vehicles (Fig. 5b), respectively, based upon their V values (Table 2). […] It was notable that the three vehicles had very similar V values. […] As was mentioned, this vehicle along with Z-LLL-AFC and Z-LLY-AFC, were consistently the most inhibitory vehicles. The V values of the most inhibitory vehicle series are shown below in Table 2. Again, a clear break between the first and second tier vehicles is discernible for the V value. Table 2. Vehicles and V value rankings.

[2] = tested on: Trypsin; test: Selectivity test (Steps VI and IX), Trypsin; format: biochemical, human; details: pH 8.0, substrate Z-R-AFC
Protocol: In order to perform the assay, the vehicle (for Step VI) or inhibitor (for Step IX) were incubated with the appropriate substrate in the correct assay buffer and allowed to equilibrate. Subsequently, the protease was added, and the assay was allowed to incubate for an appropriate time. The concentrations used in this experiment were as follows: Vehicle was set up at 4 X 10^-5 M in final assay buffer; Inhibitor was set up at 3 X 10^-10 M in the final assay buffer. Preferably the dosages employed should be the minimal amount of vehicle or inhibitor necessary to induce inhibition. […] Substrates were set up based upon the preferred substrate for cleavage of the particular enzyme.
Positive controls were set up similarly as described for test controls, except that a solvent blank was added in substitution for the inhibitor or vehicle (in a volume equal to the volume of inhibitor or vehicle addition). All of the inhibitors and vehicles could be dissolved in dimethylsulfoxide (DMSO), and therefore, this was the solvent of choice. Negative controls were set up by adding the inhibitor or vehicle and the preferred substrates in a tube without the protease. All potential non-proteolytic liberation of AFC was therefore controlled for in this tube.
All controls were set up in triplicate, and experiments were repeated a minimum of five times.
Percent inhibition was calculated as: %Inhibition = ((AFC positive for "SI"−AFC negative for "SI")−(AFC test−AFC negative for "SI"))/(AFC positive for "SI"−AFC negative for "SI") × 100 [formula]
In this preliminary test, we employed the following human-derived enzymes (with indicated mechanistic class in parentheses): Cathepsin B (cysteine), Cathepsin L (cysteine), Cathepsin H (cysteine), Cathepsin D (aspartic), Trypsin (serine), the purified Taenia solium cysteine protease, and the Taenia solium crude mix. Cathepsin B was prepared in an assay buffer of 10 mM L-cysteine in 0.4 M Citrate buffer, pH 6.1, using Z-ARR-AFC as the cleavage substrate. Cathepsin L was prepared in an assay buffer of 10 mM L-cysteine in 0.4 M Citrate buffer, pH 5.5, using Z-FR-AFC as the cleavage substrate. Cathepsin H was prepared in an assay buffer of 10 mM L-cysteine in 0.15 M PBS buffer, pH 6.8, using L-R-AFC as the cleavage substrate. Cathepsin D was prepared in an assay buffer of 0.15 M PBS, pH 7.1, using Z-RGFFP-AFC as the cleavage substrate. Trypsin was prepared in an assay buffer of 0.15 M PBS, pH 8.0, supplemented with 100 mM CaCl2 and with Z-R-AFC as the cleavage substrate. Enzyme was incubated so that it was at least 50 times less than the concentration of substrate in order to insure saturating conditions.

Compound: CC(C)C[C@H](NC(=O)OCc1ccccc1)C(=O)N[C@@H](CC(C)C)C(=O)N[C@@H](CC(C)C)C(=O)Nc1ccc2c(C(F)(F)F)cc(=O)oc2c1 [Z-LLL-AFC, Z-Leu-Leu-Leu-AFC] (Cbz-Leu-Leu-Leu-{AFC})
- Tier [1]: 1 (The first tier was composed of those vehicles that produced inhibition greater than 50% when in the presence of the 1.4% cocktail)
- % inhibition ([2]; vehicle 4 X 10^-5 M, 40 µM): 0%

Compound: CC(C)C[C@H](NC(=O)OCc1ccccc1)C(=O)N[C@@H](CC(C)C)C(=O)N[C@@H](Cc1ccc(O)cc1)C(=O)CF [Z-LLY-FMK, Z-Leu-Leu-Tyr-FMK] (Cbz-Leu-Leu-Tyr-CH2F)
- % inhibition ([2]; inhibitor 3 X 10^-10 M, 0.0003 µM): 0%

Compound: Mu-Leu-Tyr-AFC [Mu-LY-AFC]
- Tier [1]: 1 (The first tier was composed of those vehicles that produced inhibition greater than 50% when in the presence of the 1.4% cocktail)
- % inhibition ([2]; vehicle 4 X 10^-5 M, 40 µM): 0%

Compound: CC(C)C[C@H](NC(=O)OCc1ccccc1)C(=O)N[C@@H](CC(C)C)C(=O)N[C@@H](Cc1ccc(O)cc1)C(=O)Nc1ccc2c(C(F)(F)F)cc(=O)oc2c1 [Z-LLY-AFC, Z-Leu-Leu-Tyr-AFC] (Cbz-Leu-Leu-Tyr-{AFC})
- Tier [1]: 1 (The first tier was composed of those vehicles that produced inhibition greater than 50% when in the presence of the 1.4% cocktail)
- % inhibition ([2]; vehicle 4 X 10^-5 M, 40 µM): 0%
